# Measurements published in ChEMBL document CHEMBL1641395, “Highly brominated antimicrobial metabolites from a marine Pseudoalteromonas sp” (J Nat Prod, 2010).
# Tested on: Staphylococcus aureus
# Assay: Antibacterial activity against methicillin-resistant Staphylococcus aureus ATCC 43300 after 12 hrs by Broth microdilution method
# Assay type: functional, organism-based
# Conditions: ATCC 43300, 12 h
row,SMILES,IC50 [nM]
1,Brc1cc(Br)c2oc3c(Br)c(Br)[nH]c3c2c1,1930
2,Oc1ccc(Br)cc1-c1cc(Br)cc(Br)c1O,2190
3,Oc1c(Br)cc(Br)cc1-c1cc(Br)cc(Br)c1O [BROMOPHENE],2140
4,Oc1c(Br)cc(Br)cc1-c1[nH]c(Br)c(Br)c1Br [PENTABROMOPSEUDILIN],100
5,CN[C@H](CC(C)C)C(=O)N[C@H]1C(=O)N[C@@H](CC(N)=O)C(=O)N[C@H]2C(=O)N[C@H]3C(=O)N[C@H](C(=O)N[C@H](C(=O)O)c4cc(O)cc(O)c4-c4cc3ccc4O)[C@H](O)c3ccc(c(Cl)c3)Oc3cc2cc(c3O[C@@H]2O[C@H](CO)[C@@H](O)[C@H](O)[C@H]2O[C@H]2C[C@](C)(N)[C@H](O)[C@H](C)O2)Oc2ccc(cc2Cl)[C@H]1O [VANCOMYCIN],910
